Results taken from patent US20070269420A1, “Compounds, Compositions and Methods for Treatment and Prophylaxis of Hepatitis C Viral Infections and Associated Diseases” (priority 2003, published 2007).

Legend:
HCV NS4B = biological target: T1, HCV NS4B (Hepatitis C virus genotype 1b, UniProt Q9WMX2); experiment: NS4B binding assay (quenching of intrinsic protein fluorescence); conditions: fluorescent binding assay
T1 construct: NS4B was cloned, expressed and purified to establish an assay; made in house
T1 sequence (Q9WMX2 1712-1972): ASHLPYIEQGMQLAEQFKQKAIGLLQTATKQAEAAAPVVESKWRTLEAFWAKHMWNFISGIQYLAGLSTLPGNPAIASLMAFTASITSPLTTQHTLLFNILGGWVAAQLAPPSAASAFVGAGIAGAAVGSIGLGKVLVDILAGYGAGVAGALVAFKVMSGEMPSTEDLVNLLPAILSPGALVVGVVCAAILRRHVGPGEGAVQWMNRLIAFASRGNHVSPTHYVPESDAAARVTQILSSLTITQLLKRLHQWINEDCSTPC
Text: NS4B was cloned, expressed and purified to establish an assay, which takes advantage of the intrinsic fluorescent properties of proteins and identifies compounds, which inhibit by a NS4B specific mechanism. This protein is necessary for viral replication. It is thought to act as an anchor securing the replication complex to cellular membranes, where replication is known to occur. Several other functions necessary for viral replication have also ascribed to NS4B.

[1] = test system: HCV replicon (BB7 sequence) in Huh-7-Clone A cells; experiment: HCV replicon NS5A ELISA, inhibition of viral RNA replication; assay type: cell-based, hepatitis C virus; conditions: measured by Elisa and quantitative RT-PCR, Clone-A cells
Experimental: Antiviral activity of representative compounds of the invention was evaluated in a human liver-derived cell line (Huh-7-Clone A) containing the HCV replicon (BB7 sequence) (See Lohmann et al. Science. 1999, 285:110-3; Blight K J et al., Science. 2000, 290:1972-4; Pietschmann, T. et al., J. Virol. 2001, 73:1252-1264; and Lohmann, V. et al., J. Virol. 2001, 75:1437-1449). The HCV replicon is a subgenomic viral RNA that expresses the HCV proteins required for its own replication. These proteins include non-structural proteins NS3, NS4A, NS4B, NS5A and NS5B. The replicon also contains a foreign gene encoding a drug-selectable marker (neomycin phosphotransferase) to allow for G418 (neomycin) selection of cells that contain the replicon.
An ELISA (enzyme-linked immunosorbant assay) was used to determine the effect of compounds within the scope of the invention on the amount of HCV NS5A protein produced after a 72-hour incubation of the replicon-containing cells in the presence of varying concentrations of compound. Huh7-Clone A cells were seeded in 96-well plates at a subconfluent density (9000 cells/well) in medium containing 2% FBS and incubated for 4 hours to allow attachment to occur. HCV-086 (solubilized with 100% dimethylsulfoxide [DMSO]) was added to wells using an 8-point, 3-fold serial dilution series, with a final DMSO concentration of 1% in a total volume of 200 μL. Plates were incubated for 72 hours at 37° C. and 5% CO2. Under these conditions, the cells are approximately 25% confluent at the time of seeding and 80-90% confluent on day 3. COSTAR® 96-well cell culture plates were used but other known cell culture plates may be used. After incubation, media is removed from wells and the cells are fixed to the assay plate using 0.05% glutaraldehyde (Fisher # 02957-4). The glutaraldehyde is then washed off using phosphate-buffered saline (PBS) following a 1 hour incubation and cells are blocked for non-specific antibody binding using for example SUPERBLOCK® reagent (blocking buffer) in PBS. The blocking agent is rinsed from the cells with PBS after 1 hour at 37° C., and HCV NS5A monoclonal antibody (Virostat # 1873) is added to each well containing compound. Primary antibody is incubated for 1 hour at 37° C. and rinsed 3 times with PBS containing 0.02% TWEEN-20™ before addition of Horseradish Peroxidase (HRP) conjugated secondary antibody. HRP is incubated for 1 hour at 37° C. and rinsed several times, first with PBS/TWEEN-20™ followed by PBS alone. To quantify peroxidase activity, 3,3′,5,5′-tetramethylbenzidine (TMB) substrate is added to the plate and after 30 minutes, the plates are read in an ELISA plate reader at an OD of 650 nm.
Compound dose response was measured in an 8-point dose curve diluted serially to determine the inhibitory concentration at 50% (EC50 value). […] Ranges of 50% effective concentrations (EC50s) for the representative compounds within the scope of this invention are listed in Tables 1-8. Preferred compounds have 50% effective concentrations at about 30 μM or less, more preferred compounds have 50% effective concentrations at about 5 μM or less, and most preferred compounds have 50% effective concentrations at about 0.5 μM or less.

Clone-A cells [2] = experiment: Crystal violet qualitative cell proliferation assay, 5 day incubation, Clone-A; assay type: cell-based, human; conditions: crystal violet staining
Experimental: (§1) The cellular toxicity of Compound A at different concentrations was assessed on different cell lines following crystal violet staining (qualitative cell proliferation assay) after 5 day incubation. Huh7 cells are human hepatoma cells. A genotype 1b replicon-containing cell line derived from Huh7 cells (Clone-A) was obtained from Apath, LLC. Clone-A cells were selected under Compound B drug pressure and a resistant clone was selected (559^R) which contained mutations in NS4B gene.

Huh-7 cells = assay type: cell-based; conditions: human, 5 day
Experimental: as §1

559^R cells = experiment: Crystal violet qualitative cell proliferation assay, 5 day incubation, resistant clone; assay type: cell-based, human; conditions: crystal violet staining
Experimental: as §1

Clone-A cells [3] = experiment: Genomic DNA fragmentation by agarose gel electrophoresis; assay type: cell-based, human; conditions: Huh7, Clone-A and 559^R treated
Experimental: DNA fragmentation is a measure of apoptotic cell death. Huh7, Clone-A and 559^R were treated with Compound B and genomic DNA fragmentation determined by agarose gel electrophoresis.

| SMILES | binding activity towards purified HCV NS4B (HCV NS4B) | activity against HCV-replicon [1] | cellular toxicity (Clone-A cells [2]) [µM] | cellular toxicity (Huh-7 cells) [µM] | cellular toxicity (559^R cells) [µM] | genomic DNA fragmentation (apoptose) (Clone-A cells [3]) |
| --- | --- | --- | --- | --- | --- | --- |
| Cc1nn(-c2nnc3c4ccccc4n(C)c3n2)c(C)c1-c1ccccc1 [Compound A, 2-(3,5-dimethyl-4-phenyl-pyrazol-1-yl)-9-methyl-9H-1,3,4,9-tetraaza-fluorene] | demonstrated binding activity | demonstrated activity | ~3 | ~30 | ~30 |  |
| CCCCc1c(C)nn(-c2nnc3c4ccccc4n(CC)c3n2)c1C [Compound B, 2-(4-butyl-3,5-dimethyl-pyrazol-1-yl)-9-ethyl-9H-1,3,4,9-tetraaza-fluorene] | demonstrated binding activity | demonstrated activity |  |  |  | cause DNA fragmentation (apoptose) in Clone-A cells only |
